According to patent publication US20020037898A1, “Topical micronutrient delivery system and uses thereof” (priority 2000, published 2002):
Read-outs that look alike come from different tables or passages of the source. Values belong to the molecule of their own block, whether it stands above or below them.

What was measured:
[1] = system: endothelial cells of the blood capillaries; assay: Erythematous response / vasodilation at the site of topical application
Protocol: (§1) After three days, skin was removed from both the site of application and from the abdomen of each animal, and the NAD content was analyzed.

[2] = system: endothelial cells of blood capillaries; assay: Skin oxygen content by transcutaneous oxygen monitor after topical lotion; assay type: in vivo; settings: lotion applied topically for thirty minutes, then removed
Excerpt: In this experiment, a transcutaneous oxygen monitor has been used to determine oxygen content in the skin. A lotion containing the test compound was topically applied for thirty minutes. The lotion was then removed and the transcutaneous oxygen monitor was placed on the surface of the skin. […] Butyl benzoate was chosen as the co-ester.

skin of hairless mice = assay: Skin NAD content following topical application of niacin pronutrients; assay type: in vivo, female hairless mice (HRS-J); settings: for Effect on NAD content of the abdomen (in words): where the pronutrient was not applied; for Skin NAD content of abdomen / Skin NAD content of abdomen, %: not the site of application; for Skin NAD content of abdomen: 1% in lotion applied to back once per day for three days; for Skin NAD content of abdomen / Skin NAD content of back: hairless mice; for Skin NAD content of abdomen, % / Skin NAD content of back, %: relative to lotion only = 100; for Skin NAD content of abdomen, %: 1% in lotion applied to back; for Skin NAD content of back, % / Skin NAD content of back: site of application, 1% in lotion; for Skin NAD content of back, %: once per day for three days; for Skin NAD content of back: topical once per day for three days; for Effect on skin NAD content at site of application (in words): topical application, back of hairless mice
Protocol: In animal experiments, female hairless mice (HRS-J, 6-8 weeks old), received daily topical application of nicotinic acid esters, using 200 mg of commercially available “Vanicream” lotion, at a 1.0% (wt/wt) concentration, for three days. Control animals received Vanicream only.
Animals were euthanized, and dorsal and ventral skin samples were then frozen in liquid nitrogen, and stored at −80° C. In order to analyze NAD and protein content, tissue samples were homogenized, in 0.5M, ice cold HClO4, and then centrifuged at 3000 rpm for 15 minutes. The resulting supernatants were neutralized with ice-cold 2M KOH/0.66M KH2PO4, in order to determine NAD. The NAD was determined in accordance with Jacobson, et al., Meth. Enzymol. 280: 221-230 (1997) incorporated by reference, while a commercially available BCA method was used for protein determination.

[3] = system: endothelial cells of the blood capillaries; settings: in vivo
Protocol: as §1

Protocol for physchem: The lipophilicity is reported as log P values, where P refers to the octanol/water partition coefficient, described supra.
The Poct/w values for these compounds were determined in accordance with Hamisch, et al., J. Chromatog. […] In brief, this HPLC method determines capacity factor (“K′”) for each pronutrient, and also establishes a linear relationship between the logarithm of Poct/w and the logarithm of K′, for short chain pronutrients.

SMILES: COC(=O)c1cccnc1 [1 carbon]
Erythematous Response [1]: Yes

SMILES: CCCCOC(=O)c1cccnc1 [4 carbons]
Erythematous Response [1]: Yes

SMILES: CCCCCCCCOC(=O)c1cccnc1 [8 carbons, octyl nicotinate]
Skin oxygen content (PO2) [2]: increase in skin oxygen content
chromatographic logP (physchem): 4.8
Erythematous Response [1]: Yes

SMILES: CCCCCCCCCCOC(=O)c1cccnc1 [10 carbons]
Erythematous Response [1]: Slight

SMILES: CCCCCCCCCCCCOC(=O)c1cccnc1 [12 carbons]
Erythematous Response [1]: No
Effect on NAD content of the abdomen (in words) (skin of hairless mice): some delivery to the abdomen
Skin NAD content of abdomen (skin of hairless mice): 82.6 +/− 14.8 pmol NAD/mg tissue
Skin NAD content of abdomen, % (skin of hairless mice): 137%
Skin NAD content of back, % (skin of hairless mice): 141%
Skin NAD content of back (skin of hairless mice): 129.4 +/− 15.4 pmol NAD/mg tissue
Effect on skin NAD content at site of application (in words) (skin of hairless mice): increased NAD content

Continued, in another order:

Erythematous Response [1]: No
SMILES: CCCCCCCCCCCCCOC(=O)c1cccnc1 [13 carbons]

Erythematous Response [1]: No
SMILES: CCCCCCCCCCCCCCOC(=O)c1cccnc1 [14 carbons]
Effect on NAD content of the abdomen (in words) (skin of hairless mice): no increase
Skin NAD content of abdomen (skin of hairless mice): 55.8 +/− 13.8 pmol NAD/mg tissue
Skin NAD content of abdomen, % (skin of hairless mice): 92%
Skin NAD content of back, % (skin of hairless mice): 181%
Skin NAD content of back (skin of hairless mice): 165.7 +/− 12.0 pmol NAD/mg tissue
Effect on skin NAD content at site of application (in words) (skin of hairless mice): most effective

Erythematous Response [1]: No
SMILES: CCCCCCCCCCCCCCCOC(=O)c1cccnc1 [15 carbons]

Erythematous Response [1]: No
SMILES: CCCCCCCCCCCCCCCCOC(=O)c1cccnc1 [16 carbons]
Effect on NAD content of the abdomen (in words) (skin of hairless mice): no increase
Skin NAD content of abdomen (skin of hairless mice): 52.1 +/− 10.4 pmol NAD/mg tissue
Skin NAD content of abdomen, % (skin of hairless mice): 86%
Skin NAD content of back, % (skin of hairless mice): 120%
Skin NAD content of back (skin of hairless mice): 109.5 +/− 8.3 pmol NAD/mg tissue
Effect on skin NAD content at site of application (in words) (skin of hairless mice): increased NAD content

Erythematous Response [1]: No
SMILES: CCCCCCCCCCCCCCCCCCOC(=O)c1cccnc1 [18 carbons]
Effect on skin NAD content at site of application (in words) (skin of hairless mice): less effective

Erythematous Response [3]: No
Vasodilation at the site of topical application [3]: does not cause vasodilation
chromatographic logP (physchem): -0.34
SMILES: NC(=O)c1cccnc1 [Nicotinamide, reference compound]
Effect on skin NAD content at site of application (in words) (skin of hairless mice): no effect
